Earlier results in patent US9968629B2, “Product and method for supporting uridine homeostasis” (N.V. Nutricia, priority 2012, dated 2018).

time after which all administered uridine has been used or is catabolised (FIG. 3 in WO 2007/089703, plasma uridine levels): 6 to 8 h | half time in the plasma (plasma): 3 to 4 h
Compound: O=c1ccn([C@@H]2O[C@H](CO)[C@@H](O)[C@H]2O)c(=O)[nH]1 [uridine]
toxic side effects (high doses of uridine): phlebitis, pyrogenic reactions and diarrhea
